Assays:
Assay type in all cases: in vivo
[1] = system: Pseudomonas aeruginosa clinical isolate PA18298; assay: Murine pneumonia model, compound 1 in combination with amikacin (Example 4); conditions: lung
Protocol: The efficacy and ED50 of the compound of formula (I) (“compound 1”) in combination with amikacin was determined against Pseudomonas aeruginosa clinical isolate PA18298 in a pneumonia model in mice. Colony counts in lung were determined at 20 hours post treatment.
(§1) Fresh overnight colonies of PA18298 from a 5% Horse Blood Agar plate were suspended in 0.9% sterile saline to approximately 10^8 CFU/ml and further diluted to approximately 5×10^7 CFU/ml. Female mice (DBA/2, outbred, 18-22 g, Charles River) were anesthetized with 0.1 ml of Zoletil and inoculated via the nose with a pipette with 0.05 ml of the bacteria suspension containing approximately 10^6 CFU. 4 hours after inoculation, the mice were treated orally with 45 μl neurophen (20 mg ibuprofen/ml corresponding to approximately 30 mg/kg) as pain relief.
(§2) 175 mg of amikacin (Sigma) were dissolved in 5 ml 0.9% sterile saline to a concentration of 35 mg/ml and further diluted with saline to 3 mg/ml. The mice were treated subcutaneously with 0.2 ml in the neck region with a single dose at 3 hours post infection corresponding to 30 mg/kg on the basis of a mean animal weight of 20 g.
One vial containing 10 mg of active compound 1 was dissolved in 2 ml 0.9% sterile saline to a concentration of 5 mg/ml and further diluted with saline […], 1, 0.55, 0.275 and 0.137 mg/ml. The mice were treated subcutaneously with 0.2 ml in the neck region with a single dose at 4 hours post infection with a dose calculation based on a mean animal weight of 20 g. Colistin was used as a control in the same manner with a fixed dose of 20 mg/kg.
(§3) Colony counts were determined post inoculation at 4 hours (untreated mice) and 24 hours (treated and vehicle-only treated mice). Immediately after the mice were sacrificed, the lungs were collected and frozen at −20° C. After thawing, the organs were homogenized in 1 ml 0.9% saline. Each sample was then 10 fold diluted in saline and 20 μl spots were applied on blood agar plates. All agar plates were incubated 18-24 hours at 35° C. in ambient air.
The CFU/ml in the inoculum was determined to 7.4 log10 CFU/ml corresponding to 6.17 log10 CFU/mouse.
At 4 hours after inoculation the mean log 10 CFU/lung was 5.06 and the CFU level declined to 1.55 mean log 10 CFU/lung after 24 hours in the vehicle group.

[2] = system: Pseudomonas aeruginosa clinical isolate PAX11045; assay: Murine pneumonia model, compound 1 in combination with azithromycin (Example 2); conditions: 50 mg/kg alone, lung
Protocol: The efficacy and ED50 of the compound of formula (I) (“compound 1”) in combination with azithromycin was determined against Pseudomonas aeruginosa clinical isolate PAX11045 in a pneumonia model in mice. Colony counts in lung were determined at 20 hours post treatment.
as §1, with “PAX11045” for “PA18298”, “17-23” for “18-22”
as §2, with “480 mg” for “175 mg”, “of azithromycin (Zitromax™, Pfizer)” for “of amikacin (Sigma)”, “in 4.8” for “in 5”, “of 100” for “of 35”, “to 5” for “to 3”, “to 50” for “to 30”
(§4) The mice were treated subcutaneously with 0.2 ml in the neck region with a single dose at 4 hours post infection with a dose calculation based on a mean animal weight of 20 g.
as §3

[3] = system: Pseudomonas aeruginosa clinical isolate PAX11045; assay: Murine pneumonia model, compound 1 in combination with ertapenem (Example 1); conditions: 50 mg/kg alone, lung, p<0.001
Protocol: The efficacy and ED50 of the compound of formula (I) (“compound 1”) in combination with ertapenem was determined against Pseudomonas aeruginosa clinical isolate PAX11045 in a pneumonia model in mice. Colony counts in lung were determined at 20 hours post treatment.
as §1, with “PAX11045” for “PA18298”
1 g of ertapenem (Invanz™, MSD Denmark Aps) was dissolved in 10 ml 0.9% sterile saline to a concentration of 100 mg/ml and further diluted with saline to 5 mg/ml. The mice were treated subcutaneously with 0.2 ml in the neck region with a single dose at 3 hours post infection corresponding to 50 mg/kg on the basis of a mean animal weight of 20 g.
as §4, §3
The CFU/ml in the inoculum was determined to 7.65 log10 CFU/ml corresponding to 6.35 log10 CFU/mouse.
At 4 hours after infection the mean log10 CFU/lung was 5.14 and the CFU level remained at a similar level after 24 hours in the vehicle-only group.

[4] = system: Pseudomonas aeruginosa clinical isolate PA9349; assay: Murine pneumonia model, compound 1 in combination with ciprofloxacin (Example 3); conditions: colistin 20 mg/kg alone, lung
Protocol: Colony counts in lung were determined at 20 hours post treatment.
Fresh overnight colonies of PA9349 from a 5% Horse Blood Agar plate were suspended in 0.9% sterile saline to approximately 10^8 CFU/ml and further diluted to approximately 10^7 CFU/ml. Female mice (C57BL/6 […], outbred, 20-25 g, Hellenic Pasteur Institute) were anesthetized with ether and inoculated via the nose with a pipette with 0.05 ml of the bacteria suspension containing approximately 10^6 CFU. After inoculation, mice were treated with paracetamol suppositories as a pain relief.
The mice were treated subcutaneously with 0.2 ml in the neck region with a single dose at 3 hours post infection corresponding to 20 mg/kg on the basis of a mean animal weight of 20 g.
1 vial was further diluted with saline to 1, 0.8 and 0.4 mg/ml. The mice were treated subcutaneously with 0.25 ml (25 mg/kg dose) or 0.2 ml (for all other doses) in the neck region with a single dose at 4 hours post infection with a dose calculation based on a mean animal weight of 20 g.
as §3

[5] = system: Pseudomonas aeruginosa clinical isolate PA18298; assay: Murine pneumonia model, compound 1 alone (Reference 3); conditions: 20 mg/kg, positive control, lungs, p<0.001
Protocol: Efficacy in Murine Pneumonia Model Against Pseudomonas aeruginosa PA18298 and Estimation of ED50
The efficacy and ED50 of the compound of formula (I) (“compound 1”) was determined against Pseudomonas aeruginosa clinical isolate PA18298 in a pneumonia model in mice. Colony counts in the lungs were determined at 18-20 hours post treatment.
as §1, with “4×10^7” for “5×10^7”, “Zoletil (tiletamine+zolazepam)” for “Zoletil”, “1×10^6” for “10^6”
One vial containing 10 mg of active compound 1 was dissolved in 2 ml 0.9% sterile saline to a concentration of 5 mg/ml and was further diluted with saline to 2, 1, 0.75, 0.55, 0.275 and 0.137 mg/ml. The mice were treated subcutaneously with 0.2 ml in the neck region with a single dose at 4 hours post infection with a dose calculation based on a mean animal weight of 20 g. As positive control colistin was used in the same manner with a fixed dose of 20 mg/kg.
as §3, with “10-fold” for “10 fold”, “18-48” for “18-24”
The CFU/ml in the inoculum was determined to 7.49 log10 CFU/ml corresponding to 6.20 log10 CFU/mouse.
At 4 hours after infection the mean log10 CFU/lung was 5.05 and the CFU level declined to 2.62 at 24 hours post inoculation in the vehicle-only group.

## NCC[C@H](O)C(=O)N[C@@H]1C[C@H](N)[C@@H](O[C@H]2O[C@H](CN)[C@@H](O)[C@H](O)[C@H]2O)[C@H](O)[C@H]1O[C@H]1O[C@H](CO)[C@@H](O)[C@H](N)[C@H]1O [amikacin, reference compound]
[1]; amikacin 30 mg/kg alone
  effect on bacterial loads: some effects on reducing the bacterial loads

## CC[C@H]1OC(=O)[C@H](C)[C@@H](O[C@H]2C[C@@](C)(OC)[C@@H](O)[C@H](C)O2)[C@H](C)[C@@H](O[C@@H]2O[C@H](C)C[C@H](N(C)C)[C@H]2O)[C@](C)(O)C[C@@H](C)CN(C)[C@H](C)[C@@H](O)[C@]1(C)O [azithromycin, reference compound]
[2]
  effect on bacterial loads: no effect on the bacterial loads

## C[C@@H](O)[C@H]1C(=O)N2C(C(=O)O)=C(S[C@@H]3CN[C@H](C(=O)Nc4cccc(C(=O)O)c4)C3)[C@H](C)[C@H]12 [ertapenem, reference compound]
[3]
  effect on bacterial loads: significant effect on reducing the bacterial loads

## colistin [reference compound]
[1]; colistin 20 mg/kg, control
  effect on bacterial loads: some effects on reducing the bacterial loads
[4]
  effect on bacterial loads: no or only slight effects on the bacterial loads
[5]
  effect on bacterial loads: some effect on reducing the bacterial loads
